Structures can show the parent of a compound that is named as a salt.
Experiments:
[1] = in vitro; details: dog
[2] = test system: influenza virus (IFV) A/California/07/2009 (H1N1) pdm09 strain; test: In vitro activity against influenza virus (CPE, CCK8, MDCK cells); assay type: cell-based; details: 120 h; for EC50: read-out: IFV (MDCK) EC50
[3] = test system: respiratory syncytial virus (RSV) A long strain; test: In vitro activity against respiratory syncytial virus (CPE, CCK8, HEp-2 cells); assay type: cell-based; details: human respiratory syncytial virus, 120 h, MOI=0.02, 5 days; for inhibition at 5 µM: read-out: RSV (HEp-2) inhibition rate at a concentration of 5 μM
[4] = Cytotoxicity in HEp-2 cells (CCK8); details: human
[5] = Stability test of compounds in solutions at different pH values
[6] = test system: SFTSV-Nluc; test: microbe, parasite or virus in culture; assay type: cell-based, severe fever with thrombocytopenia syndrome virus (SFTSV); details: Severe fever with thrombocytopenia syndrome virus, Vero, 48 h; for inhibition at 10 µM: read-out: Inhibition rate (10 μM)

SMILES | CC50 [1] | EC50 [2] | EC50 [3] | CC50 at 5 days [4] | other results
CC(C)C(=O)OCn1c(=O)ccn([C@@H]2O[C@](F)(CO)[C@@H](O)[C@H]2O)c1=O [Compound X43] | > 10 µM | 0.5 µM | 2.32 µM | > 10 µM | –
CCC(CC)C(=O)OCn1c(=O)ccn([C@@H]2O[C@](F)(COC(=O)C(C)C)[C@@H](O)[C@H]2O)c1=O [Compound X52] | > 10 µM | 0.57 µM | 4.85 µM | > 10 µM | Content reduction (%) ([5]; buffered saline solution pH 4.0, 3 h): 0.9%; Content reduction (%) ([5]; buffered saline solution pH 4.0, 6 h): 1.4%; Content reduction (%) ([5]; buffered saline solution pH 4.0, 9 h): 1.9%; Content reduction (%) ([5]; buffered saline solution pH 4.0, 12 h): 2.2%; Content reduction (%) ([5]; buffered saline solution pH 4.0, 15 h): 2.6%; Content reduction (%) ([5]; buffered saline solution pH 4.0, 18 h): 3.0%; Content reduction (%) ([5]; buffered saline solution pH 4.0, 21 h): 3.4%; Content reduction (%) ([5]; buffered saline solution pH 4.0, 24 h): 3.6%; Content reduction (%) ([5]; buffered saline solution pH 6.8, 3 h): 1.2%; Content reduction (%) ([5]; buffered saline solution pH 6.8, 6 h): 2.3%; Content reduction (%) ([5]; buffered saline solution pH 6.8, 9 h): 3.3%; Content reduction (%) ([5]; buffered saline solution pH 6.8, 12 h): 4.3%; Content reduction (%) ([5]; buffered saline solution pH 6.8, 15 h): 5.4%; Content reduction (%) ([5]; buffered saline solution pH 6.8, 18 h): 6.6%; Content reduction (%) ([5]; buffered saline solution pH 6.8, 21 h): 7.6%; Content reduction (%) ([5]; buffered saline solution pH 6.8, 24 h): 8.7%
CCC(CC)C(=O)OC[C@@]1(F)O[C@@H](n2ccc(=O)n(COC(=O)C(C)C)c2=O)[C@H](O)[C@@H]1O [Compound X57] | > 5 µM | – | – | > 5 µM | inhibition at 5 µM ([2]; read-out: IFV (MDCK) inhibition rate at a concentration of 5 μM): 90.5%; inhibition at 5 µM [3]: 50.3%
CC(C)C(=O)OCn1c(=O)ccn([C@@H]2O[C@](F)(COC(=O)C3CCCCC3)[C@@H](O)[C@H]2O)c1=O [Compound X61] | > 10 µM | < 0.37 µM | 2.04 µM | > 10 µM | EC50 [6]: 0.59 µM; inhibition at 10 µM [6]: 96.1%
O=C(OCn1c(=O)ccn([C@@H]2O[C@](F)(COC(=O)C3CCCCC3)[C@@H](O)[C@H]2O)c1=O)C1CCCCC1 [Compound X63] | > 10 µM | < 0.37 µM | 1.51 µM | > 10 µM | –
CC(C)C(=O)OCn1c(=O)ccn([C@@H]2O[C@](F)(COC(=O)[C@@H](N)C(C)C)[C@@H](OC(=O)C(C)C)[C@H]2OC(=O)C(C)C)c1=O [Compound X79] | > 10 µM | 0.48 µM | 1.46 µM | > 10 µM | inhibition at 10 µM [6]: < 10%
CC(C)C(=O)OC[C@@]1(F)O[C@@H](n2ccc(=O)n(COC(=O)[C@@H](N)C(C)C)c2=O)[C@H](OC(=O)C(C)C)[C@@H]1OC(=O)C(C)C [Compound X98] | > 10 µM | 0.5 µM | 1.42 µM | > 10 µM | EC50 [6]: 1.16 µM; inhibition at 10 µM [6]: 95.7%
CC(C)C(=O)OCn1c(=O)ccn([C@@H]2O[C@](F)(COC(=O)C(C)C)[C@H]3OC(=O)O[C@@H]23)c1=O [Compound X113] | > 10 µM | < 0.37 µM | 1.97 µM | > 10 µM | –
CC(C)=CCOc1ccn([C@@H]2O[C@](F)(COC(=O)C(C)C)[C@@H](O)[C@H]2O)c(=O)n1 [Compound X134] | > 10 µM | 0.46 µM | 1.2 µM | > 10 µM | –
CC(C)C(=O)OCn1c(=O)ccn([C@@H]2O[C@](F)(CO)[C@H]3OC(=O)O[C@@H]23)c1=O [Compound X173] | > 10 µM | 0.46 µM | 2.62 µM | > 10 µM | –
CC(C)C(=O)OC[C@@]1(F)O[C@@H](n2ccc(=O)n(COC(=O)CCCN(C)C)c2=O)[C@@H]2OC(=O)O[C@@H]21 [Compound X185] | – | – | – | > 5 µM | inhibition at 5 µM [3]: 94.7%
O=C(/C=C/c1ccccc1)OCn1c(=O)ccn([C@@H]2O[C@](F)(COC(=O)/C=C/c3ccccc3)[C@@H](O)[C@H]2O)c1=O [Compound X198] | – | – | 2.45 µM | > 10 µM | –
CCCCCCCCCCCC(=O)OCn1c(=O)ccn([C@@H]2O[C@](F)(COC(=O)CCCCCCCCCCC)[C@@H](O)[C@H]2O)c1=O [Compound X199] | > 10 µM | 0.41 µM | 0.46 µM | > 10 µM | EC50 [6]: 2.79 µM; inhibition at 10 µM [6]: 96.1%
CCCCCCCCCCCCCCCC(=O)OCn1c(=O)ccn([C@@H]2O[C@](F)(COC(=O)CCCCCCCCCCCCCCC)[C@@H](O)[C@H]2O)c1=O [Compound X200] | > 10 µM | 2.29 µM | 1.17 µM | > 10 µM | –
CC(C)C(=O)OCn1c(=O)ccn([C@@H]2O[C@](F)(COC(=O)C(C)C)[C@@H](OC(=O)C(C)C)[C@H]2OC(=O)C(C)C)c1=O [Compound X201] | > 10 µM | 0.56 µM | 1.51 µM | > 10 µM | –
CC(C)C(=O)OC[C@@]1(F)O[C@@H](n2ccc(=O)n(COC(=O)C3CCNCC3)c2=O)[C@H](OC(=O)C(C)C)[C@@H]1OC(=O)C(C)C [Compound X204] | > 10 µM | 0.65 µM | 1.52 µM | > 10 µM | –

SMILES | CC50 [1] | EC50 [2] | EC50 [3] | CC50 at 5 days [4] | other results
CC(C)C(=O)OC[C@@]1(F)O[C@@H](n2ccc(=O)n(COC(=O)C3CCN(C)CC3)c2=O)[C@H](OC(=O)C(C)C)[C@@H]1OC(=O)C(C)C [Compound X205] | > 10 µM | < 0.37 µM | 2.56 µM | > 10 µM | –
CC(C)C(=O)OC[C@@]1(F)O[C@@H](n2ccc(=O)n(COC(=O)c3cccnc3)c2=O)[C@H](O)[C@@H]1O [Compound X207] | > 10 µM | 0.38 µM | 4.09 µM | > 10 µM | EC50 [6]: 1.89 µM; inhibition at 10 µM [6]: 91.8%
CC(C)C(=O)OCn1c(=O)ccn([C@@H]2O[C@](F)(COC(=O)c3cccnc3)[C@@H](O)[C@H]2O)c1=O [Compound X208] | > 10 µM | < 0.37 µM | 1.09 µM | – | –
CC(C)(C)C(=O)OC[C@@]1(F)O[C@@H](n2ccc(=O)n(COC(=O)c3cccnc3)c2=O)[C@H](O)[C@@H]1O [Compound X210] | > 10 µM | < 0.37 µM | 1.88 µM | > 10 µM | –
CCC(CC)C(=O)OC[C@@]1(F)O[C@@H](n2ccc(=O)n(COC(=O)c3cccnc3)c2=O)[C@H](O)[C@@H]1O [Compound X211] | > 10 µM | 3.34 µM | 5.82 µM | > 10 µM | –
CC(C)C(=O)OC[C@@]1(F)O[C@@H](n2ccc(=O)n(COC(=O)c3cccnc3)c2=O)[C@@H]2OC(=O)O[C@@H]21 [Compound X214] | > 10 µM | < 0.37 µM | 2.09 µM | > 10 µM | –
CCC(=O)OC[C@@]1(F)O[C@@H](n2ccc(=O)n(COC(=O)c3cccnc3)c2=O)[C@H](OC(=O)CC)[C@@H]1OC(=O)CC [Compound X220] | > 10 µM | 0.819 µM | 1.29 µM | > 10 µM | –
CC(C)(C)C(=O)OCn1c(=O)ccn([C@@H]2O[C@](F)(COC(=O)c3cccnc3)[C@@H](O)[C@H]2O)c1=O [Compound X222] | > 10 µM | < 0.37 µM | 0.77 µM | > 10 µM | EC50 [6]: 3.3 µM; inhibition at 10 µM [6]: 90.3%
CCC(CC)C(=O)OCn1c(=O)ccn([C@@H]2O[C@](F)(COC(=O)c3cccnc3)[C@@H](O)[C@H]2O)c1=O [Compound X223] | > 10 µM | 0.82 µM | 2.14 µM | > 10 µM | –
O=C(OCn1c(=O)ccn([C@@H]2O[C@](F)(COC(=O)c3cccnc3)[C@@H](O)[C@H]2O)c1=O)c1cccnc1 [Compound X231] | > 10 µM | 0.51 µM | 1.16 µM | > 10 µM | –
O=C(OCn1c(=O)ccn([C@@H]2O[C@](F)(COC(=O)c3cccnc3)[C@@H](OC(=O)c3cccnc3)[C@H]2OC(=O)c2cccnc2)c1=O)c1cccnc1 [Compound X232] | > 10 µM | 0.85 µM | 1.13 µM | > 10 µM | –
O=C1O[C@H]2[C@H](n3ccc(=O)n(COC(=O)c4cccnc4)c3=O)O[C@](F)(COC(=O)c3cccnc3)[C@H]2O1 [Compound X233] | > 10 µM | 0.46 µM | 1.2 µM | > 10 µM | –
CC(C)C(=O)O[C@H]1[C@H](n2ccc(=O)n(COC(=O)c3cccnc3)c2=O)O[C@](F)(COC(=O)c2cccnc2)[C@H]1OC(=O)C(C)C [Compound X257] | > 10 µM | 1.38 µM | 1.64 µM | > 10 µM | –
CCN(CC)CC(=O)OCn1c(=O)ccn([C@@H]2O[C@](F)(COC(=O)C(C)C)[C@@H](OC(=O)C(C)C)[C@H]2OC(=O)C(C)C)c1=O [Compound X260] | > 10 µM | < 0.37 µM | 2.34 µM | > 10 µM | –
CC(C)C(=O)OC[C@@]1(F)O[C@@H](n2ccc(=O)n(COC(=O)[C@@H]3CCCN3)c2=O)[C@H](OC(=O)C(C)C)[C@@H]1OC(=O)C(C)C [Compound X266] | > 10 µM | 0.894 µM | 1.02 µM | > 10 µM | EC50 [6]: 2.07 µM; inhibition at 10 µM [6]: 94.6%
CC(C)C(=O)OC[C@@]1(F)O[C@@H](n2ccc(=O)n(COC(=O)CN(C)C)c2=O)[C@H](OC(=O)C(C)C)[C@@H]1OC(=O)C(C)C [X100 hydrochloride] | > 10 µM | 0.41 µM | 1.79 µM | > 10 µM | –
